Measurements reported in patent publication US9789102B2, “H3 receptor antagonist for use in the treatment of alzheimer's disease” (SANOFI, priority 2012, dated 2017).

Test system: MIP-1α gene expression
Assay: mRNA expression of MIP-1α in hippocampus by QPCR after six months in food
Type: in vivo, THY-Tau22 mice
Text: 2-(Cyclohexylmethyl)-N-{2-[(2S)-1-methylpyrrolidin-2-yl]ethyl}-1,2,3,4-tetrahydroisoquinoline-7-sulfonamide difumarate monohydrate was administrated as a supplement in food at doses of 0.00034%, 0.0034% and 0.034% for six months in THY-Tau22 and wild type mice as follows: • Tg Veh (n=17) • Tg Active Ingredient—0.034% (n=17) • Tg Active Ingredient—0.0034% (n=17) • Tg Active Ingredient—0.00034% (n=17) • WT Veh (n=17) • WT Active Ingredient—0.034% (n=17) • WT Active Ingredient—0.0034% (n=17) • WT Active Ingredient—0.00034% (n=17) • WT groups treated with Active Ingredient are not used in the biochemical and histological studies.
1. […] To assess the quality and concentration of the total RNA, 1 μl was analyzed on an RNA LabChip (Agilent) using a 2100 Bioanalyser, (Agilent Technologies). […]
2 μg of total RNA from each mouse was reverse transcribed with oligo (dT)16 and random primers using a High-Capacity cDNA Archive Kit (Applied Biosystems), following the manufacturer recommendations. […] For real time PCR, the housekeeping gene R.L37A, was amplified using a quantitect primer assay from Qiagen (QT00252266) and MIP1 alpha was amplified using the following primers (5′-[…]-3′) SEQ ID NO: 1; (5′-[…]-3′) SEQ ID NO: 2. […]

## CN1CCC[C@H]1CCNS(=O)(=O)c1ccc2c(c1)CN(CC1CCCCC1)CC2 [2-(cyclohexylmethyl)-N-{2-[(2S)-1-methylpyrrolidin-2-yl]ethyl}-1,2,3,4-tetrahydroisoquinoline-7-sulfonamide difumarate monohydrate]
0.00034% in food
  MIP-1α gene expression in hippocampus, vs vehicle: statistical significant decrease
0.0034% in food
  MIP-1α gene expression in hippocampus, vs vehicle: statistical significant decrease
